Data on 19 molecules can be found in PMC10184130.

Counter-ions that a name gives are not always drawn.

By IC50 is commonly meant the concentration that inhibits the measured activity by half. The Papp is the rate of passage across a membrane or cell layer, normalised by area and donor concentration. A low value points to slow passage. The term Papp A→B denotes the apparent permeability from the apical to the basolateral side of a cell layer.

In series [1] the target is T1, human C1s (Homo sapiens, UniProt P09871).
T1 construct: Recombinant human C1s (358–688 aa) fused with both the N-terminal IgG signal peptide; IgG signal peptide (N); His tag (C); made in house; host or cells: HEK293 cells
T1 sequence (P09871 358-688): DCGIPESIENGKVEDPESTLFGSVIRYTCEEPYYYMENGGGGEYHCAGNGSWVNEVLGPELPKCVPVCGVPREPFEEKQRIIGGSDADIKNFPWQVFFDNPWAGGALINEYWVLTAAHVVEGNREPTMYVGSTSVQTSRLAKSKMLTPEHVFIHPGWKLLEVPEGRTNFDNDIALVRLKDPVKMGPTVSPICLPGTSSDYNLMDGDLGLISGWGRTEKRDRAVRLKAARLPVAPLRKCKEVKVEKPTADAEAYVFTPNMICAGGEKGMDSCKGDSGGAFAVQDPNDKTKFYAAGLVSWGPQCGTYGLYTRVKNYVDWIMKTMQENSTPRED
Briefly: Human C1s enzyme assay. In kind it is biochemical. Here is the method:
Recombinant human C1s (358–688 aa) fused with both the N-terminal IgG signal peptide and the C-terminal His tag was expressed in HEK293 cells and purified. The assay was performed in a 384-well clear plate in a total volume of 20 μL of an assay buffer 1 [50 mmol/L Tris–HCl (pH 7.5), 150 mmol/L NaCl, 0.01% (w/v) Tween 20, and 0.01% (w/v) BSA]. Compounds were dissolved in DMSO and diluted to various concentrations. After 20 nL of compound solution was added to the plate, 10 μL of substrate solution containing a 250 μmol/L Z-Lys-SBzl peptide (Watanabe Chemical, Hiroshima, Japan) and 250 μmol/L DTNB (5,5′-dithiobis(2-nitrobenzoic acid)) (Sigma, MO, USA) was added to the plate. Then, 8 nmol/L human C1s was added to the plate and incubated at room temperature for 60 min. The absorbance at 405 nm was detected using an EnVision multilabel plate reader. […] The IC50 values were calculated using IDBS XLfit software.

Series [2] addresses T2, human C1r (Homo sapiens, UniProt P00736).
T2 construct: Recombinant human C1r (375–705 aa) fused with both the N-terminal IgG signal peptide; IgG signal peptide (N); His tag (C); made in house; host or cells: HEK293 cells
T2 sequence (P00736 375-705): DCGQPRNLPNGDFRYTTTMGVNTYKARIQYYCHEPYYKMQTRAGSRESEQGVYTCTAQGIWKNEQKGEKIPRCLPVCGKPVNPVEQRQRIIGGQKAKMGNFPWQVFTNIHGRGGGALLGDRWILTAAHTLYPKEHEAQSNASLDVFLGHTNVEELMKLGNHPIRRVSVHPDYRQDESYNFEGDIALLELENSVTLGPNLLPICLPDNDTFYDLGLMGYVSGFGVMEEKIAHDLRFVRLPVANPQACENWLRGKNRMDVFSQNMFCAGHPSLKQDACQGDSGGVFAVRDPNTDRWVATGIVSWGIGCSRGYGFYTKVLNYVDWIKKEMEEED
Kind of series: Human C1r enzyme assay. In kind it is biochemical. From the text:
Recombinant human C1r (375–705 aa) fused with both the N-terminal IgG signal peptide and the C-terminal His tag was expressed in HEK293 cells and purified. Human C1r assay conditions were the same as for human C1s, except that the enzyme solution concentration was 3 nmol/L and the substrate peptide was 250 μmol/L Z-Gly-Arg-SBzl (custom synthesis from Peptide Institute, Osaka, Japan) instead of Z-Lys-SBzl.

The target of series [3] is T3, human factor D (Homo sapiens, UniProt P00746).
T3 construct: Recombinant human factor D (26–253 aa) fused with both the N-terminal IgG signal peptide; IgG signal peptide (N); His tag (C); made in house; host or cells: Expi293 cells
Briefly: Human factor D enzyme assay. The class given is biochemical. From the text:
Recombinant human factor D (26–253 aa) fused with both the N-terminal IgG signal peptide and the C-terminal His tag was expressed in Expi293 cells and purified. The human factor D assay condition was the same as for human MASP2, except that the enzyme solution concentration was 20 nmol/L and the substrate solution contained a 400 μmol/L Z-Lys-SBzl peptide and 50 μmol/L BES-Thio.

In series [4] the target is T4, human thrombin (Homo sapiens, UniProt P00734).
T4 construct: purchased AnaSpec
Briefly: Human thrombin enzyme assay. The class given is biochemical. As to the method:
The human thrombin enzyme activity was determined by a SensoLyte 520 thrombin activity assay kit (AnaSpec, CA, USA). Purified human thrombin and the substrate were diluted in the assay buffer 1. After 20 nL of compound solution was added to a 384-well black plate, 3 μL of the 2 μmol/L 5-FAM/QXLTM 520 thrombin substrate was added to the plate. Then, 8 nmol/L human thrombin was added to the plate and incubated at room temperature for 60 min. The fluorescence at an excitation wavelength of 485 nm and an emission wavelength of 535 nm was detected using an EnVision multilabel plate reader.

In series [5] the target is human trypsin. Briefly: Human trypsin enzyme assay. In kind it is biochemical. Here is the method:
Recombinant human trypsin (FUJIFILM Wako, Osaka, Japan) and the substrate were diluted in an assay buffer [50 mmol/L Tris–HCl (pH 7.5), 145 mmol/L NaCl, 2 mmol/L CaCl2, and 0.01% (w/v) Tween 20]. After 20 nL of compound solution was added to a 384-well black plate, 3 μL of substrate solution containing 25 μmol/L Boc-Phe-Ser-Arg-MCA (Peptide Institute, Osaka, Japan) was added to the plate. Then, 6 mU/mL human trypsin was added to the plate and incubated at room temperature for 60 min. The fluorescence at an excitation wavelength of 360 nm and an emission wavelength of 460 nm was detected using an EnVision multilabel plate reader.

Series [6] deals with T5, human MASP2 (Homo sapiens, UniProt O00187).
T5 construct: Recombinant human MASP2 (298–686 aa) fused with both the N-terminal IgG signal peptide; IgG signal peptide (N); His tag (C); made in house; host or cells: Expi293 cells
Briefly: Human MASP2 enzyme assay. In kind it is biochemical. Here is the method:
Recombinant human MASP2 (298–686 aa) fused with both the N-terminal IgG signal peptide and the C-terminal His tag was expressed in Expi293 cells and purified. The assay was performed in a 384-well black plate in a total volume of 6 μL of the assay buffer 1. After 20 nL of compound solution was added to the plate, 3 μL of substrate solution containing a 20 μmol/L Z-Gly-Arg-SBzl peptide and 20 μmol/L BES-Thio (FUJIFILM Wako, Osaka, Japan) was added to the plate. Then, 0.6 nmol/L human MASP2 was added to the plate and incubated at room temperature for 60 min. The fluorescence at an excitation wavelength of 485 nm and an emission wavelength of 535 nm was detected using an EnVision multilabel plate reader.

Series [7] can be described thus: PAMPA. The class given is in vitro ADME. Here is the method:
A PAMPA Evolution system (pION) was applied for the assay. After incubating the test compound (10 μmol/L) for 3 h at 25 °C, the permeation coefficient value was calculated with determining the test compound by LC/MS/MS.
For orientation: PAMPA measures passive passage across an artificial lipid membrane.

The target in series [8] is T6, MDR1 (P-gp) (Homo sapiens, UniProt P08183).
T6 construct: expressed in transfected cells
Briefly: Membrane permeability with human MDR-1 expressing cells. The class given is in vitro ADME. Conditions: human; MDR1-expressing cells, 1 μmol/L, 2 h. Here is the method:
(§1) The transcellular transport study was performed as reported previously.[31] In brief, the cells were grown in an HTS Transwell 96-well permeable support (pore size of 0.4 μm, 0.143 cm^2 surface area) with a polyethylene terephthalate membrane (Corning Life Sciences, Lowell, MA, USA) at a density of 1.125 × 10^5 cells/well. The cells were preincubated with M199 at 37 °C for 30 min. Subsequently, transcellular transport was initiated by the addition of M199 to apical compartments containing 1 μmol/L test compounds and terminated by the removal of each assay plate after 2 h. The aliquots in the opposite compartments were subjected to measurement for compound concentration by LC–MS/MS. Permeability was calculated using the permeated compound concentration.

For series [9], the target named is T7, Human Multidrug Resistance 1 (MDR-1) Expressing Cells (Homo sapiens, UniProt P08183).
T7 construct: expressed in transfected cells
The description is as above. In kind it is in vitro ADME. To be noted: supplementary csv. As to the method:
as §1

The mark [10] stands for this setting: 95% confidence intervals in parentheses.

T3 sequence (P00746 26-253): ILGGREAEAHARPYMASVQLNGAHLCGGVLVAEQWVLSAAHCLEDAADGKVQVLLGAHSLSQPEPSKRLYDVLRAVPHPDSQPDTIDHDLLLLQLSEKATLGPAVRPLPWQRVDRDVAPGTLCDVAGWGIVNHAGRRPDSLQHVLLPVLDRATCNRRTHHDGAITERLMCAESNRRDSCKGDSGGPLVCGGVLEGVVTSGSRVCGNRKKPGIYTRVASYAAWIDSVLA
T5 sequence (O00187 298-686): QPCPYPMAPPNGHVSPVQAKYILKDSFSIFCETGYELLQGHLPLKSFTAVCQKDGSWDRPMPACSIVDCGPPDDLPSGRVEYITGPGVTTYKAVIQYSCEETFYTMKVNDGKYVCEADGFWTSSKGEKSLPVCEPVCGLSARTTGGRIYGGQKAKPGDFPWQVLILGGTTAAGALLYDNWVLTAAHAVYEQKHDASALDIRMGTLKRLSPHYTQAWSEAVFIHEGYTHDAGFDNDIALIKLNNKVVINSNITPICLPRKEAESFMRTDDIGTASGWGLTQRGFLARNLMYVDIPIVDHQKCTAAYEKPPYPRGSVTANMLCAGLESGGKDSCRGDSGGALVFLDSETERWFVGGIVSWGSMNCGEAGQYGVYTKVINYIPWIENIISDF

As to `C[C@@H]1CN(c2ccc3c(N)nncc3c2)CCN1c1cccc(F)c1` [(R)-6, 6-[(3R)-4-(3-Fluorophenyl)-3-methylpiperazin-1-yl]phthalazin-1-amine], the IC50 in series [1] (setting [10]) came to 820 nM.

`C[C@H]1CN(c2ccc3c(N)nncc3c2)CCN1c1cccc(F)c1` [(S)-6, 6-[(3S)-4-(3-Fluorophenyl)-3-methylpiperazin-1-yl]phthalazin-1-amine]: the IC50 in series [1] (setting [10]) turned out to be 170 nM.

With `Cc1cc([C@@H]2CN(c3cc(F)c4c(N)nncc4c3)CCN2c2cccc(F)c2)no1` [(S)-8, 8-Fluoro-6-[(3S)-4-(3-fluorophenyl)-3-(5-methyl-1,2-oxazol-3-yl)piperazin-1-yl]phthalazin-1-amine], the IC50 in series [1] (setting [10]) is above 300000 nM.

With `Cc1ccc(C(=O)N2CCN(c3ccc4c(N)nccc4c3)CC2)cc1` [Compound 4b, [4-(1-Aminoisoquinolin-6-yl)piperazin-1-yl](4-methylphenyl)methanone], the IC50 in [1] (setting [10]) was determined as 96000 nM.

Take `Cc1ccc(C(=O)N2CCN(c3ccc4c(N)nncc4c3)CC2)cc1` [Compound 4c, [4-(1-Aminophthalazin-6-yl)piperazin-1-yl](4-methylphenyl)methanone]: in [1] (setting [10]), the IC50 worked out at 2500 nM.

On to `Cc1ccc(C(=O)N2CCN(c3ccc4cnncc4c3)CC2)cc1` [Compound 4d, (4-Methylphenyl)[4-(phthalazin-6-yl)piperazin-1-yl]methanone], for which the IC50 in series [1] (setting [10]) is above 300000 nM.

For the molecule `Cc1ccccc1C(=O)N1CCN(c2ccc3c(N)nncc3c2)CC1` [Compound 4e, [4-(1-Aminophthalazin-6-yl)piperazin-1-yl](2-methylphenyl)methanone], the IC50 in [2] was above 30000 nM; in series [3], above 30000 nM; in series [4], above 30000 nM; in series [1] (supplementary csv), 4500 nM; in [5] it was above 30000 nM; in series [6], above 30000 nM.

Regarding `Nc1nncc2cc(N3CCN(C(=O)c4ccccc4)CC3)ccc12` [Compound 4f, [4-(1-Aminophthalazin-6-yl)piperazin-1-yl](phenyl)methanone], the half-inhibitory concentration (IC50) in series [1] (setting [10]) worked out at 5100 nM.

In the case of `Nc1nncc2cc(N3CCN(c4ccccc4)CC3)ccc12` [Compound 5a, 6-(4-Phenylpiperazin-1-yl)phthalazin-1-amine Trifluoroacetic Acid Salt], the concentration for half-maximal inhibition (IC50) in [1] (setting [10]) was determined as 580 nM.

Regarding `Nc1nncc2cc(N3CCC(c4ccccc4)CC3)ccc12` [Compound 5b, 6-(4-Phenylpiperidin-1-yl)phthalazin-1-amine Trifluoroacetic Acid Salt], the half-maximal inhibitory concentration (IC50) in series [1] (setting [10]) is 4200 nM.

For the molecule `Nc1nncc2cc(C3CCN(c4ccccc4)CC3)ccc12` [Compound 5c, 6-(1-Phenylpiperidin-4-yl)phthalazin-1-amine], in series [1] (setting [10]), the concentration for half-maximal inhibition (IC50) is above 30000 nM.

On to `Cc1ccccc1N1CCN(c2ccc3c(N)nncc3c2)CC1` [Compound 5d, 6-[4-(2-Methylphenyl)piperazin-1-yl]phthalazin-1-amine Trifluoroacetic Acid Salt], for which the IC50 in series [1] (setting [10]) is 1200 nM.

For `Cc1cccc(N2CCN(c3ccc4c(N)nncc4c3)CC2)c1` [Compound 5e, 6-[4-(3-Methylphenyl)piperazin-1-yl]phthalazin-1-amine], in series [1] (setting [10]), the 50% inhibitory concentration (IC50) amounted to 560 nM.

As for `Cc1ccc(N2CCN(c3ccc4c(N)nncc4c3)CC2)cc1` [Compound 5f, 6-[4-(4-Methylphenyl)piperazin-1-yl]phthalazin-1-amine], the IC50 in series [1] (setting [10]) came to 6700 nM.

For the molecule `Nc1nncc2cc(N3CCN(c4cccc(F)c4)CC3)ccc12` [Compound 5g, 6-[4-(3-Fluorophenyl)piperazin-1-yl]phthalazin-1-amine], the IC50 in series [1] (setting [10]) amounted to 370 nM.

As to `Nc1nncc2cc(N3CCN(c4cccc(Cl)c4)CC3)ccc12` [Compound 5h, 6-[4-(3-Chlorophenyl)piperazin-1-yl]phthalazin-1-amine Trifluoroacetic Acid Salt], in [1] (setting [10]), the half-inhibitory concentration (IC50) came to 390 nM.

Consider `COc1cccc(N2CCN(c3ccc4c(N)nncc4c3)CC2)c1` [Compound 5i, 6-[4-(3-Methoxyphenyl)piperazin-1-yl]phthalazin-1-amine], for which the half-maximal inhibitory concentration (IC50) in series [1] (setting [10]) was 1400 nM.

For the molecule `N#Cc1cccc(N2CCN(c3ccc4c(N)nncc4c3)CC2)c1` [Compound 5j, 3-[4-(1-Aminophthalazin-6-yl)piperazin-1-yl]benzonitrile], the IC50 in series [1] (setting [10]) is 1400 nM.

Molecule `Cc1cc([C@H]2CN(c3ccc4c(N)nncc4c3)CCN2c2cccc(F)c2)no1.O=C(O)C(F)(F)F` [Compound (R)-7, 6-[(3R)-4-(3-Fluorophenyl)-3-(5-methyl-1,2-oxazol-3-yl)piperazin-1-yl]phthalazin-1-amine Trifluoroacetic Acid Salt] came in with an apparent permeability coefficient (Papp) at 3 h, 10 μmol/L in series [7] (PAMPA, pH 7.4) of 1.9 ×10⁻⁶ cm/s. Also, the “PAMPA at pH 7.4 (nm/sec)” value in series [7] (supplementary csv) worked out at 19 nm/sec. In [8], this molecule had a Papp A→B at 2 h, 1 μmol/L of 0.3 ×10⁻⁶ cm/s. The “MDR1 (A to B)” value in series [9] turned out to be 3 nm/s. Also, in series [1] (setting [10]), the IC50 worked out at 7.1 nM.
